Tested on: Human Retinoblastoma (hRB) Y79 (ATCC HTB-18) cells
Assay: Fluorescence-based (CellTiter-Blue, resazurin) cell viability potency assay with sodium butyrate insult
Settings: 2, 4, 8 mM sodium butyrate; 72 hours incubation
Source text: In the following examples, Human Retinoblastoma (hRB) Y79 (ATCC® HTB-18™) cells were expanded and maintained for use by culturing in ATCC®-formulated RPMI-1640 medium supplemented with 20% fetal bovine serum. The cells were maintained according to ATCC® recommendations. Human retinal progenitor cells (hRPCs) and human retinal pigment epithelium cells (hRPE cells) were isolated from 18-20 week human fetuses and propagated in standard medium (SM) comprising Advanced DMEM/F12 with 1×N−2 supplement, 1×GlutaMax-1, 20 ng/ml human FGF-basic protein and 20 ng/ml human EGF protein.
In the following experiments, conditioned medium (CM) was collected from hRPCs, hRB cells or hRPE grown in SM for 48 hours (with replacement of the SM after 24 hours). Cells were harvested and counted after each CM collection.
First, 12.5×10^3, 2.5×10^4, 5.0×10^4, 1.0×10^5 and 2.0×10^5 Human Retinoblastoma (hRB) Y79 (ATCC® HTB-18™) cells were plated in five separate wells of a 96 well assay plate and incubated in 50 μl SM. […] Resorufin is highly fluorescent, meaning that the fluorescence signal generated can be used to determine the viability of the cells incubated with Resazurin.
The fluorescence of each well was measured after incubation with resazurin. Fluorescence signals were read at an excitation wavelength of 520 nm and an emission wavelength of 580-640 nm. […]

CCCC(=O)[O-].[Na+] [sodium butyrate]
fluorescence signal (cell proliferation and viability) with higher concentrations of sodium butyrate: decreased fluorescence signals

— US20210208130A1, “ASSAYS FOR CELL-BASED THERAPIES OR TREATMENTS” (The Regents of the University of California, priority 2018, published 2021)
